Reference: patent US20230372382A1, “USE OF ADENOSINE DIPHOSPHATE RIBOSE FOR ADJUVANT THERAPY WITH RADIATION AND/OR ANTI-CANCER TREATMENT” (PearlsInMires Co., Ltd., priority 2021, published 2023)
pIC50: −log10 of the molar value.

What was measured:
SNU-1 cells = assay: Cancer cell death verification (MTT cell viability); assay type: cell-based; conditions: SNU-1, 32 μM ADP-ribose, 24 hours
Protocol: 3×10^3 SNU-1 or OVCAR-3 cells were cultured in a 96-well plate for 24 hours under conditions of 37° C. and 5% CO2, treated with ADP-ribose at concentrations of 32 μM, respectively, and cultured again for 24 hours under conditions of 37° C. and 5% CO2. Then, 10 μl of 3-(4,5-dimethylthiazol-2-yl)-2,5-diphenyltetrazolium bromide reagent was added to each well and reacted for 1 hour. After the reaction was completed, the reagent was removed, 200 μl of dimethyl sulfoxide was added to each well, and the absorbance was measured to confirm cell viability.

AsPC-1 cells [1] = assay: as above; assay type: cell-based
Protocol: 3×10^3 Brain cancer (U-87MG), lung cancer (H1975), pancreatic cancer (Aspc-1), liver cancer (Hep G2), breast cancer (MDA-MB-231), colon cancer (HCT116), kidney cancer (Caki-1), gastric cancer (SNU-1) and ovarian cancer (OVCAR-3) cells were cultured in a 96-well plate under conditions of 37° C. and 5% CO2 for 24 hours, and then each cancer cell was treated with ADP-ribose at each concentration. After culturing for 24 hours under conditions of 37° C. and 5% CO2 again, 10 μl of 3-(4,5-dimethylthiazol-2-yl)-2,5-diphenyltetrazolium bromide reagent was added to each well and reacted for 1 hour. After the reaction was completed, the reagent was removed, 200 μl of dimethyl sulfoxide was added to each well, and the absorbance was measured to determine the concentration of half-lethality and maximum lethality compared to untreated cells.
3×10^3 AsPC-1 cells were cultured in a 96-well plate for 24 hours under conditions of 37° C. and 5% CO2, treated with ADP-ribose at concentrations of 0.125, 0.25, 0.5, 1, 2, 4, 8, 16, and 32 μM, respectively, and cultured again for 24 hours under conditions of 37° C. and 5% CO2. Then, 10 μl of 3-(4,5-dimethylthiazol-2-yl)-2,5-diphenyltetrazolium bromide reagent was added to each well and reacted for 1 hour. After the reaction was completed, the reagent was removed, 200 μl of dimethyl sulfoxide was added to each well, and the absorbance was measured to confirm cell viability.

AsPC-1 cells [2] = assay: Cell death by combination treatment of ADP-ribose and radiation (MTT); assay type: cell-based; conditions: AsPC-1, 2 μM ADP-ribose in combination with 2 Gy radiation, 24 hours, P<0.001; 2 Gy alone about 87.3%
Protocol: 3×10^3 Brain cancer (U-87MG), lung cancer (H1975), pancreatic cancer (Aspc-1), liver cancer (Hep G2), breast cancer (MDA-MB-231), colon cancer (HCT116), and kidney cancer (Caki-1) cells were cultured in a 96-well plate for 24 hours under conditions of 37° C. and 5% CO2, treated with ADP-ribose or 2 or 5 Gy radiation alone or in combination with ADP-ribose and 2 Gy radiation, and cultured for 24 hours under conditions of 37° C. and 5% CO2 again. Then, 10 μl of 3-(4,5-dimethylthiazol-2-yl)-2,5-diphenyltetrazolium bromide reagent was added to each well and reacted for 1 hour. After the reaction was completed, the reagent was removed, 200 μl of dimethyl sulfoxide was added to each well, and the absorbance was measured to compare the degree of cell death.
3×10^3 AsPC-1 cells were cultured in a 96-well plate for 24 hours under conditions of 37° C. and 5% CO2, treated with 2 μM of ADP-ribose and 2 or 5 Gy dose of radiation individually or in combination, and cultured for 24 hours under conditions of 37° C. and 5% CO2 again. Then, 10 μl of 3-(4,5-dimethylthiazol-2-yl)-2,5-diphenyltetrazolium bromide reagent was added to each well and reacted for 1 hour. After the reaction was completed, the reagent was removed, 200 μl of dimethyl sulfoxide was added to each well, and the absorbance was measured to confirm cell viability.

MDA-MB-231 cells = assay: Change over time in intracellular ADP-ribose, radiation versus ADP-ribose treatment (ELISA); assay type: cell-based; conditions: MDA-MB-231, 16 μM ADP-ribose, even after 24 hours; after radiation back to untreated level from 16 hours
Protocol: (§1) Brain cancer (U-87MG), kidney cancer (Caki-1), pancreatic cancer (AsPC-1), or breast cancer (MDA-MB-231) cells were cultured in a 6-well plate, respectively, and the cells were divided into the untreated group, the radiation-treated group, and the ADP-ribose-treated group. Irradiation was performed using an X-Rad 320 irradiator (Precision X-ray, North Branford, CT, USA), and cancer cells were treated with a total of 1, 2, and 5 Gy at a dose rate of 300 kVp and 150 cGy/min using an X-ray beam filter composed of 12.5 mA and 2.0 mm Al, respectively. Before treatment and at 4, 8, 16, and 24 hours after treatment, the medium was removed, the cells were washed with phosphate-buffered saline, and then RIPA buffer was added and the products were left on ice for 20 minutes. After scraping the cells, the cells were put in a centrifuge tube and centrifuged for 10 minutes at 10,000 g and 4° C. The supernatant was obtained, and 1% SDS was added, and then the reaction product was boiled at 100° C. for 5 minutes and cooled on ice. The supernatant was centrifuged again at 10,000 g and 4° C. for 10 minutes to obtain the final supernatant, and ADP-ribose was quantitatively analyzed using an ELISA analysis kit (Cell Biolabs, Inc., San Diego, CA, USA). […]

U-87MG cells = assay: as above; assay type: cell-based; conditions: 8 μM ADP-ribose, even after 24 hours, after radiation back to untreated level at 24 hours
Protocol: as §1

[3] = system: Kidney cancer (Caki-1) cells; assay: Xenograft model, intravenous ADP-ribose, tumor volume; assay type: in vivo, BALB/c nude mice; conditions: Caki-1 xenograft, 3 times a week, control about 2074.9
Protocol: Pancreatic cancer (AsPC-1) or kidney cancer (Caki-1) cells (1×10^7 cells) were inoculated into 5-week-old BALB/c nude mice on the back flank, and the mice were grown up to approximately 150 mm^3 of the tumor volume. Then, three concentrations of ADP-ribose were administered subcutaneously, intravenously, and orally 3 times a week. The tumor size was measured every 6 days using a digital caliper, and the changes in tumor volume were compared for each group.
Kidney cancer (Caki-1) cells (1×10^7) were inoculated into 5-week-old BALB/c nude mice on the back flank, and the mice were divided into 4 groups: the control group (Control) and groups injected intravenously with 2, 10, and 20 mg/kg of ADP-ribose. When the tumors were grown to a volume of approximately 150 mm^3, each concentration of ADP-ribose was […] injected 3 times a week. The tumor size was measured using a digital caliper, and the results of changes in tumor volume were compared by the group.

[4] = system: Pancreatic cancer (AsPC-1) cells; conditions: AsPC-1 xenograft
Protocol: Brain (U-87MG), lung (H1975), pancreatic (AsPC-1), or liver (Hep G2) cells (1×10^7 cells) were inoculated into 5-week-old BALB/c nude mice on the back flank, respectively. Then, when tumors were grown to a volume of approximately 150 mm^3, the mice were divided into the control group (control), an anti-cancer drug alone treatment group, and a combination treatment group. […] The tumor size was measured every 6 days using a digital caliper, and the results of changes in tumor volume were compared by the group.
The tumor size was measured using a digital caliper, and the results of changes in tumor volume were compared by the group.

[5] = ADP-ribose 10 mg/kg s.c. in combination with gemcitabine 50 mg/kg, P<0.001

SMILES: Nc1ncnc2c1ncn2[C@@H]1O[C@H](COP(=O)(O)OP(=O)(O)OC[C@H]2O[C@@H](O)C(O)C2O)C(O)C1O (stereo partly shown) [ADP-ribose, adenosine diphosphate ribose]
- cell death compared to the control group (SNU-1 cells): killed significantly
- maximum lethal dose (concentration at which almost all cells were killed) (AsPC-1 cells [1]; AsPC-1, 24 hours, MTT): 32 µM
- cancer cell growth under a microscope (AsPC-1 cells [1]; AsPC-1, ADP-ribose treated vs control, FIG. 4A): inhibited from growing and killed
- pIC50 (AsPC-1 cells [1]; Homo sapiens, ASPC1, 24 h, read-out: half-lethal dose (concentration at which about half of the cells were killed)): ~5.70
- survival rate of cancer cells (AsPC-1 cells [2]): about 8%
- amount of ADP-ribose in the cells over time compared to the control group (MDA-MB-231 cells): maintained a significant (P<0.001) increase
- amount of ADP-ribose in the cells over time compared to the control group (U-87MG cells): maintained a significant (P<0.001) increase
- final tumor volume ([3]; 2 mg/kg intravenous): 706.7 mm^3
- final tumor volume ([3]; 10 mg/kg intravenous): 331.7 mm^3
- final tumor volume ([3]; 20 mg/kg intravenous): 227.2 mm^3
- reduction of tumor volume compared to the control group [4, 5]: about 80%
- reduction of tumor volume compared to the group treated with gemcitabine alone [4, 5]: about 76%
- final tumor volume ([4]; ADP-ribose 10 mg/kg subcutaneous 3 times a week in combination with gemcitabine 50 mg/kg, control about 2174.3): about 444.3 mm^3
